Experimental data published in the supplement of paper PMC4862054.

Experiments:
Conditions in all cases: incubation time: 72 h
BT-549 [1] = test: normalised response (% of control), CellTox Green; higher = less cell death (100 = DMSO, 0 = benzethonium chloride kill control)
Outline: (§1)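 Breast cancer cell lines, seeded at 20 µl suspension per well, were incubated for 72 h in 384-well plates containing compound at 5 concentrations. These concentrations rose in 10-fold steps over a 10,000-fold range set for each compound. CellTox Green fluorescence (485/520 nm) was read, then CellTiter-Glo luminescence after 10 min at room temperature, and each plate was normalised to 0.1 % DMSO (100) and a positive kill control (0). Values are normalised signals, each at one concentration.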

CAL-85-1 [2] = test: as above
Outline: as §1

BT-474 [3] = test: as above
Outline: as §1

HCC1599 [4] = test: as above
Outline: as §1

Hs578T [5] = test: as above
Outline: as §1

MDA-MB-436 [6] = test: as above
Outline: as §1

MDA-MB-453 [7] = test: as above
Outline: as §1

MFM-223 [8] = test: as above
Outline: as §1

DU-4475 [9] = test: as above
Outline: as §1

MCF-10A [10] = test: as above
Outline: as §1

MDA-MB-231 [11] = test: as above
Outline: as §1

CAL-120 [12] = test: as above
Outline: as §1

CAL-51 [13] = test: as above
Outline: as §1

CAL-148 [14] = test: as above
Outline: as §1

MDA-MB-468 [15] = test: as above
Outline: as §1

BT-549 [16] = test: normalised response (% of control), CellTiter-Glo; higher = more viable cells (100 = DMSO, 0 = benzethonium chloride kill control)
Outline: as §1

CAL-85-1 [17] = test: as above
Outline: as §1

BT-474 [18] = test: as above
Outline: as §1

HCC1143 [19] = test: as above
Outline: as §1

HCC1599 [20] = test: as above
Outline: as §1

Hs578T [21] = test: as above
Outline: as §1

MDA-MB-436 [22] = test: as above
Outline: as §1

MDA-MB-453 [23] = test: as above
Outline: as §1

MFM-223 [24] = test: as above
Outline: as §1

HDQ-P1 [25] = test: as above
Outline: as §1

DU-4475 [26] = test: as above
Outline: as §1

MCF-10A [27] = test: as above
Outline: as §1

MDA-MB-231 [28] = test: as above
Outline: as §1

SK-BR-3 = test: as above
Outline: as §1

HCC1937 [29] = test: as above
Outline: as §1

CAL-120 [30] = test: as above
Outline: as §1

CAL-51 [31] = test: as above
Outline: as §1

CAL-148 [32] = test: as above
Outline: as §1

MDA-MB-468 [33] = test: as above
Outline: as §1

HCC1143 [34] = test: normalised response (% of control), CellTox Green; higher = less cell death (100 = DMSO, 0 = benzethonium chloride kill control)
Outline: as §1

HDQ-P1 [35] = test: as above
Outline: as §1

HCC1937 [36] = test: as above
Outline: as §1

Structure (SMILES)	normalised response (BT-549 [1]) [%]	normalised response (CAL-85-1 [2]) [%]	normalised response (BT-474 [3]) [%]	normalised response (HCC1599 [4]) [%]	normalised response (Hs578T [5]) [%]	normalised response (MDA-MB-436 [6]) [%]	normalised response (MDA-MB-453 [7]) [%]	normalised response (MFM-223 [8]) [%]	normalised response (DU-4475 [9]) [%]	normalised response (MCF-10A [10]) [%]	normalised response (MDA-MB-231 [11]) [%]	normalised response (CAL-120 [12]) [%]	normalised response (CAL-51 [13]) [%]	normalised response (CAL-148 [14]) [%]	normalised response (MDA-MB-468 [15]) [%]	normalised response (BT-549 [16]) [%]	normalised response (CAL-85-1 [17]) [%]	normalised response (BT-474 [18]) [%]	normalised response (HCC1143 [19]) [%]	normalised response (HCC1599 [20]) [%]	normalised response (Hs578T [21]) [%]	normalised response (MDA-MB-436 [22]) [%]	normalised response (MDA-MB-453 [23]) [%]	normalised response (MFM-223 [24]) [%]	normalised response (HDQ-P1 [25]) [%]	normalised response (DU-4475 [26]) [%]	normalised response (MCF-10A [27]) [%]	normalised response (MDA-MB-231 [28]) [%]	normalised response (SK-BR-3) [%]	normalised response (HCC1937 [29]) [%]	normalised response (CAL-120 [30]) [%]	normalised response (CAL-51 [31]) [%]	normalised response (CAL-148 [32]) [%]	normalised response (MDA-MB-468 [33]) [%]	normalised response (HCC1143 [34]) [%]	normalised response (HDQ-P1 [35]) [%]	normalised response (HCC1937 [36]) [%]
CC(C)(C)Cn1c(N)nc2ccc(-c3[nH]c(C(C)(C)C)nc3-c3ccc(F)cc3)nc21 (1000 nM)	111	90.7	101	84.3	80.6	78.8	101	99.5	105	77.7	110	81.1	94	99.9	113	93.7	104	101	98	111	97.7	102	92.8	97.9	94.6	94.8	89.7	100	97.7	93.6	96.6	103	93.1	93.4	–	–	–
CN1CCc2c(c3ccccc3n2Cc2ccc(C(=O)NO)cc2)C1 [Tubastatin A] (1 nM)	–	–	–	–	–	–	–	–	–	–	–	–	–	–	–	104	103	97.3	98	101	97.6	87.7	103	101	96.4	102	99.8	96.8	99.3	97.6	92.7	88.4	94.9	99.5	–	–	–
CN1CCN(c2nc(C3=C(c4c[nH]c5ccccc45)C(=O)NC3=O)c3ccccc3n2)CC1 [Sotrastaurin] (10 nM)	–	–	–	–	–	–	–	–	–	–	–	–	–	–	–	94.6	95.8	93.5	96.1	105	101	94.2	96.1	93.6	100	96.8	99.6	105	124	96.6	91.3	123	93.1	93.6	–	–	–
Cc1c(C(=O)Nc2ccc(N3C[C@@H](C)O[C@@H](C)C3)nc2)cccc1-c1ccc(OC(F)(F)F)cc1 [Erismodegib] (1000 nM)	136	104	103	103	–	94.7	101	101	97.6	107	72.4	99.7	97.5	110	111	90.5	93	81.7	89.8	101	101	84.6	79.2	84.9	91.7	98.9	85.6	94.2	81.7	97.9	96.5	66.1	98.5	93.7	110	99.7	74.5
CC(C)C(=O)Nc1ccc([N+](=O)[O-])c(C(F)(F)F)c1 [Flutamide] (10 nM)	–	–	–	–	–	–	–	–	–	–	–	–	–	–	–	96.4	96.2	101	98.6	105	98.6	99.8	109	99.6	98.4	102	103	95.7	124	102	97.6	126	92.1	96	–	–	–
NC(=O)NO [Hydroxyurea] (100 nM)	–	–	–	–	–	–	–	–	–	–	–	–	–	–	–	97.7	99.8	99.5	104	94.1	102	96.3	112	108	97.3	101	104	98.5	93.5	96	97.8	89.7	102	101	–	–	–
CC/C(=C(\c1ccccc1)c1ccc(OCCN(C)C)cc1)c1ccccc1 [Tamoxifen] (10 nM)	–	–	–	–	–	–	–	–	–	–	–	–	–	–	–	91.8	98.8	103	114	103	97.3	100	98.7	108	104	104	112	100	100	103	100	83.8	108	99.2	–	–	–
CCc1c(C(=O)C(N)=O)c2c(OCC(=O)O)cccc2n1Cc1ccccc1 [Varespladib] (1000 nM)	102	114	99.9	99.3	–	103	109	97	102	97.7	103	106	110	100	105	94.2	97.6	92.6	106	96.4	102	94	99.8	95.8	100	101	104	103	100	100	98.2	106	104	100	108	114	105
COc1cc(Nc2ncc(F)c(Nc3ccc4c(n3)N(COP(=O)(O)O)C(=O)C(C)(C)O4)n2)cc(OC)c1OC [Fostamatinib] (0.25 nM)	–	–	–	–	–	–	–	–	–	–	–	–	–	–	–	107	99.3	97.2	100	111	99.2	110	99.4	94.9	99.1	96.2	103	101	98	106	107	83.5	93.3	97.4	–	–	–
CC(C)NC[C@@H](C(=O)N1CCN(c2ncnc3c2[C@H](C)C[C@H]3O)CC1)c1ccc(Cl)cc1 [GDC-0068] (1 nM)	–	–	–	–	–	–	–	–	–	–	–	–	–	–	–	97.7	98.9	99.3	97.3	100	101	96.9	102	98.9	99.8	99.9	106	103	103	102	95.9	71	95.3	94.1	–	–	–
CCCc1cc(C)[nH]c(=O)c1CNC(=O)c1cc(-c2ccnc(N3CCN(C)CC3)c2)cc2c1cnn2C(C)C [GSK343] (10 nM)	–	–	–	–	–	–	–	–	–	–	–	–	–	–	–	96.5	91.6	97.2	104	103	101	91.1	94.2	93.3	97.6	94	103	91.7	109	103	97	81.4	80.2	87.4	–	–	–
CC(C)(C)Cn1c(N)nc2ccc(-c3[nH]c(C(C)(C)C)nc3-c3ccc(F)cc3)nc21 (1 nM)	–	–	–	–	–	–	–	–	–	–	–	–	–	–	–	103	99.9	103	104	104	95.4	101	110	106	101	98.1	109	99.3	104	105	98.8	117	110	102	–	–	–
CN1CCc2c(c3ccccc3n2Cc2ccc(C(=O)NO)cc2)C1 [Tubastatin A] (10 nM)	–	–	–	–	–	–	–	–	–	–	–	–	–	–	–	96.3	107	92.7	95.2	92.8	102	95.2	94.1	102	99.4	100	101	92.4	93.8	99.6	96.1	67.6	107	102	–	–	–
